# According to ChEMBL document CHEMBL4680316, “JNK selective inhibitor, IQ-1S, protects the mice against lipopolysaccharides-induced sepsis” (2021):
# Active and inactive are the calls of the source. No cut-off for these calls is given here.
# Experiments:
# [1] = tested on: Mus musculus; experiment: Antiinflammatory activity in C57BL/6 mouse model of LPS-induced sepsis assessed as CD4 cells in spleen at 200 ug, iv administered 2 hrs after LPS administration and measured after 10 hrs of post LPS administration by flow cytometry analysis (reference value: 23.8 %); type: functional; settings: dose 200 µg; time 8 hrs
# [2] = tested on: BMDM; experiment: Inhibition of JNK signalling in LPS-induced sepsis wild type C57BL/6 mouse BMDM cells assessed as reduction in AP-1 expression at 1 uM pretreated for 1 hr by Western blot assay; type: cell-based
# [3] = tested on: BMDM; experiment: Antiinflammatory activity in LPS-induced sepsis C57BL/6 mouse BMDM cells assessed as reduction in IL-1beta secretion at 1 uM treated 1 hr before LPS stimulation and measured after 12 and 24 hrs by ELISA; type: functional, cell-based; settings: time 12-24 hrs
# [4] = tested on: BMDM; experiment: Inhibition of JNK signalling in LPS-induced sepsis wild type C57BL/6 mouse BMDM cells assessed as reduction in JNK-2 phosphorylation at 1 uM pretreated for 1 hr by Western blot assay; type: cell-based
# [5] = tested on: BMDM; experiment: Antiinflammatory activity in LPS-induced sepsis C57BL/6 mouse BMDM cells assessed as reduction in IL-1beta mRNA expression at 1 uM treated 1 hr before LPS stimulation and measured after 2 and 6 hrs by qRT-PCR analysis; type: functional, cell-based; settings: time 2-6 hrs
# [6] = tested on: BMDM; experiment: Antiinflammatory activity in CpG-induced sepsis C57BL/6 mouse BMDM cells harboring JNK assessed as reduction in Nos2 mRNA expression at 1 uM pretreated for 1 hr by qRT-PCR analysis; type: functional, cell-based
# [7] = tested on: Mus musculus; experiment: Antiinflammatory activity in C57BL/6 mouse model of LPS-induced sepsis assessed as CD8+ cells in spleen at 200 ug, iv administered 2 hrs after LPS administration and measured after 10 hrs of post LPS administration by flow cytometry analysis (reference value: 13 %); type: functional; settings: dose 200 µg; time 8 hrs
# [8] = tested on: BMDM; experiment: Antiinflammatory activity in CpG-induced sepsis C57BL/6 mouse BMDM cells assessed as reduction in IL-1beta mRNA expression at 1 uM treated 1 hr before CpG stimulation by qRT-PCR analysis; type: functional, cell-based
# [9] = tested on: BMDM; experiment: Antiinflammatory activity in LPS-induced sepsis C57BL/6 mouse BMDM cells assessed as reduction in TNF-alpha mRNA expression at 1 uM treated 1 hr before LPS stimulation and measured after 2 and 6 hrs by qRT-PCR analysis; type: functional, cell-based; settings: time 2-6 hrs
# [10] = tested on: Mus musculus; experiment: Antiinflammatory activity in wild type C57BL/6 mouse model of LPS and D-galactosamine-induced sepsis assessed as survival of organism at 50 to 200 ug, iv administered 2 hrs before LPS and D-galactosamine administration and observed for 20 hrs; type: functional, organism-based; settings: dose 50-200 µg, time 22.0 hrs
# [11] = tested on: BMDM; experiment: Inhibition of JNK signalling in LPS-induced sepsis wild type C57BL/6 mouse BMDM cells assessed as reduction in IkappaBalpha phosphorylation at 1 uM pretreated for 1 hr by Western blot assay; type: cell-based
# [12] = tested on: BMDM; experiment: Antiinflammatory activity in CpG-induced sepsis C57BL/6 mouse BMDM cells assessed as reduction in IL-6 secretion at 1 uM treated 1 hr before CpG stimulation and measured after 12 and 24 hrs by ELISA; type: functional, cell-based; settings: time 12-24 hrs
# [13] = tested on: BMDM; experiment: Antiinflammatory activity in CpG-induced sepsis C57BL/6 mouse BMDM cells assessed as reduction in TNF-alpha secretion at 1 uM treated 1 hr before CpG stimulation and measured after 12 and 24 hrs by ELISA; type: functional, cell-based; settings: time 12-24 hrs
# [14] = tested on: BMDM; experiment: Inhibition of JNK signalling in LPS-induced sepsis wild type C57BL/6 mouse BMDM cells assessed as reduction in IKKbeta phosphorylation at 1 uM pretreated for 1 hr by Western blot assay; type: cell-based
# [15] = tested on: BMDM; experiment: Antiinflammatory activity in LPS-induced sepsis C57BL/6 mouse BMDM cells assessed as reduction in TNF-alpha secretion at 1 uM treated 1 hr before LPS stimulation and measured after 12 and 24 hrs by ELISA; type: functional, cell-based; settings: time 12-24 hrs
# [16] = tested on: Mus musculus; experiment: Antiinflammatory activity in C57BL/6 mouse model of LPS-induced sepsis assessed as macrophages in spleen at 200 ug, iv administered 2 hrs after LPS administration and measured after 10 hrs of post LPS administration by flow cytometry analysis (reference value: 9.69 %); type: functional; settings: dose 200 µg; time 8 hrs
# [17] = tested on: BMDM; experiment: Antiinflammatory activity in LPS-induced sepsis C57BL/6 mouse BMDM cells assessed as reduction in IL-6 secretion at 1 uM treated 1 hr before LPS stimulation and measured after 12 and 24 hrs by ELISA; type: functional, cell-based; settings: time 12-24 hrs
# [18] = tested on: BMDM; experiment: Antiinflammatory activity in CpG-induced sepsis C57BL/6 mouse BMDM cells assessed as reduction in IL-6 mRNA expression at 1 uM treated 1 hr before CpG stimulation by qRT-PCR analysis; type: functional, cell-based
# [19] = tested on: Mus musculus; experiment: (§1) Antiinflammatory activity in wild type C57BL/6 mouse model of LPS and D-galactosamine-induced sepsis assessed as decrease in serum IL-6 level at 50 to 200 ug, ip administered 2 hrs after LPS and D-galactosamine administration and measured after 10 hrs of post LPS administration by ELISA; type: functional, organism-based; settings: dose 50-200 µg, time 8.0 hrs
# [20] = tested on: BMDM; experiment: Induction of IL-4-induced polarization of C57BL/6 mouse BMDM cells to M2 assessed as Arg mRNA expression at 1 uM pretreated for 1 hr by qRT-PCR analysis; type: functional, cell-based
# [21] = tested on: BMDM; experiment: Inhibition of JNK signalling in LPS-induced sepsis wild type C57BL/6 mouse BMDM cells assessed as reduction in p38 phosphorylation at 1 uM pretreated for 1 hr by Western blot assay; type: cell-based
# [22] = tested on: BMDM; experiment: Antiinflammatory activity in CpG-induced sepsis C57BL/6 mouse BMDM cells harboring JNK assessed as reduction in IL-6 mRNA expression at 1 uM pretreated for 1 hr by qRT-PCR analysis; type: functional, cell-based
# [23] = tested on: BMDM; experiment: Induction of IL-4-induced polarization of C57BL/6 mouse BMDM cells to M2 assessed as Mrc mRNA expression at 1 uM pretreated for 1 hr by qRT-PCR analysis; type: functional, cell-based
# [24] = tested on: Mus musculus; experiment: as §1, with “area of immune cells in lungs” for “serum IL-6 level”, “H and E staining based imaging analysis” for “ELISA”; type: functional, organism-based; settings: dose 50-200 µg, time 8.0 hrs
# [25] = tested on: Mus musculus; experiment: Antiinflammatory activity in C57BL/6 mouse model of LPS-induced sepsis assessed as neutrophils in spleen at 200 ug, iv administered 2 hrs after LPS administration and measured after 10 hrs of post LPS administration by flow cytometry analysis (reference value: 24.8 %); type: functional; settings: dose 200 µg; time 8 hrs
# [26] = tested on: Mus musculus; experiment: Antiinflammatory activity in wild type C57BL/6 mouse model of LPS and D-galactosamine-induced sepsis assessed as decrease in serum TNF-alpha level at 50 to 200 ug, ip administered 2 hrs after LPS and D-galactosamine administration and measured after 10 hrs of post LPS administration by ELISA; type: functional, organism-based; settings: dose 50-200 µg, time 8.0 hrs
# [27] = tested on: Mus musculus; experiment: Antiinflammatory activity in wild type C57BL/6 mouse model of LPS and D-galactosamine-induced sepsis assessed as decrease in serum IL-1beta level at 50 to 200 ug, ip administered 2 hrs after LPS and D-galactosamine administration and measured after 10 hrs of post LPS administration by ELISA; type: functional, organism-based; settings: dose 50-200 µg, time 8.0 hrs
# [28] = tested on: BMDM; experiment: Antiinflammatory activity in LPS-induced sepsis C57BL/6 mouse BMDM cells assessed as reduction in IL-6 mRNA expression at 1 uM treated 1 hr before LPS stimulation and measured after 2 and 6 hrs by qRT-PCR analysis; type: functional, cell-based; settings: time 2-6 hrs
# [29] = tested on: BMDM; experiment: Antiinflammatory activity in CpG-induced sepsis C57BL/6 mouse BMDM cells harboring JNK assessed as reduction in TNF mRNA expression at 1 uM pretreated for 1 hr by qRT-PCR analysis; type: functional, cell-based
# [30] = tested on: BMDM; experiment: Inhibition of JNK signalling in LPS-induced sepsis wild type C57BL/6 mouse BMDM cells assessed as reduction in NF-kappaB expression at 1 uM pretreated for 1 hr by Western blot assay; type: cell-based
# [31] = tested on: BMDM; experiment: Antiinflammatory activity in CpG-induced sepsis C57BL/6 mouse BMDM cells assessed as reduction in IL-1beta secretion at 1 uM treated 1 hr before CpG stimulation and measured after 12 and 24 hrs by ELISA; type: functional, cell-based; settings: time 12-24 hrs
# [32] = tested on: BMDM; experiment: Antiinflammatory activity in CpG-induced sepsis C57BL/6 mouse BMDM cells assessed as reduction in TNF-alpha mRNA expression at 1 uM treated 1 hr before CpG stimulation by qRT-PCR analysis; type: functional, cell-based
smiles,measurement,setting,value
[Na+].[O-]/N=C1/c2ccccc2-c2nc3ccccc3nc21,Activity,[1],17.2%
same,inhibition,[2],Active
same,Activity,[3],Active
same,inhibition,[4],Active
same,Activity,[5],Active
same,Activity,[6],Active
same,Activity,[7],9.2%
same,Activity,[8],Active
same,Activity,[9],Active
same,Activity,[10],Active
same,inhibition,[11],Active
same,Activity,[12],Active
same,Activity,[13],Active
same,inhibition,[14],Active
same,Activity,[15],Active
same,Activity,[16],8.6%
same,Activity,[17],Active
same,Activity,[18],Active
same,Activity,[19],Active
same,Activity,[20],inactive
same,inhibition,[21],Active
same,Activity,[22],Active
same,Activity,[23],inactive
same,Activity,[24],Active
same,Activity,[25],18.8%
same,Activity,[26],Active
same,Activity,[27],Active
same,Activity,[28],Active
same,Activity,[29],Active
same,inhibition,[30],inactive
same,Activity,[31],Active
same,Activity,[32],Active
